Legend:
[1] = molecular target: JAK1 (Homo sapiens (Human), UniProt P23458); assay: Biochemical JAK1 kinase assay (LanthaScreen)
Procedure, shortened: (§1)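 GST-JAK + GFP-STAT1 peptide, HEPES pH 7.5/MgCl2/EGTA/Brij-35 buffer; cpd preincubation 1 h RT; ATP start, 1 h RT; stop with 10 mM EDTA + 2 nM Tb-anti-pSTAT1; TR-FRET 520/495. 4-parameter IC50 → pKi (Cheng-Prusoff).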

[2] = molecular target: Tyk2 (Homo sapiens (Human), UniProt P29597); assay: Biochemical Tyk2 kinase assay (LanthaScreen)
Procedure, shortened: as §1

[3] = molecular target: JAK2 (Homo sapiens (Human), UniProt O60674); assay: Biochemical JAK2 kinase assay (LanthaScreen)
Procedure, shortened: as §1

[4] = molecular target: JAK3 (Homo sapiens (Human), UniProt P52333); assay: Biochemical JAK3 kinase assay (LanthaScreen)
Procedure, shortened: as §1

[5] = system: IL-2 stimulated STAT5 phosphorylation in Tall-1 human T cell line (JAK3); assay: Cellular JAK3 potency assay: inhibition of IL-2 stimulated pSTAT5 in Tall-1 T cells; type: cell-based
Procedure, shortened: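 AlphaLISA SureFire Ultra measures STAT5 Tyr694/699 phosphorylation in lysed Tall-1 human T cells. Cells were exposed to compound for 1 h at 37 °C before a 30 min IL-2 challenge (300 ng/ml final). Values are pIC50 means with standard deviation from signal-versus-concentration curves.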

[6] = selectivity JAK3 over JAK1, difference of pKi
[7] = IL-2 stimulated pSTAT5, Tall-1 T cells
[8] = selectivity, difference of pKi values
[9] = IL-2 stimulated pSTAT5 in Tall-1 T cells

Sequence of JAK1 (P23458 whole entry): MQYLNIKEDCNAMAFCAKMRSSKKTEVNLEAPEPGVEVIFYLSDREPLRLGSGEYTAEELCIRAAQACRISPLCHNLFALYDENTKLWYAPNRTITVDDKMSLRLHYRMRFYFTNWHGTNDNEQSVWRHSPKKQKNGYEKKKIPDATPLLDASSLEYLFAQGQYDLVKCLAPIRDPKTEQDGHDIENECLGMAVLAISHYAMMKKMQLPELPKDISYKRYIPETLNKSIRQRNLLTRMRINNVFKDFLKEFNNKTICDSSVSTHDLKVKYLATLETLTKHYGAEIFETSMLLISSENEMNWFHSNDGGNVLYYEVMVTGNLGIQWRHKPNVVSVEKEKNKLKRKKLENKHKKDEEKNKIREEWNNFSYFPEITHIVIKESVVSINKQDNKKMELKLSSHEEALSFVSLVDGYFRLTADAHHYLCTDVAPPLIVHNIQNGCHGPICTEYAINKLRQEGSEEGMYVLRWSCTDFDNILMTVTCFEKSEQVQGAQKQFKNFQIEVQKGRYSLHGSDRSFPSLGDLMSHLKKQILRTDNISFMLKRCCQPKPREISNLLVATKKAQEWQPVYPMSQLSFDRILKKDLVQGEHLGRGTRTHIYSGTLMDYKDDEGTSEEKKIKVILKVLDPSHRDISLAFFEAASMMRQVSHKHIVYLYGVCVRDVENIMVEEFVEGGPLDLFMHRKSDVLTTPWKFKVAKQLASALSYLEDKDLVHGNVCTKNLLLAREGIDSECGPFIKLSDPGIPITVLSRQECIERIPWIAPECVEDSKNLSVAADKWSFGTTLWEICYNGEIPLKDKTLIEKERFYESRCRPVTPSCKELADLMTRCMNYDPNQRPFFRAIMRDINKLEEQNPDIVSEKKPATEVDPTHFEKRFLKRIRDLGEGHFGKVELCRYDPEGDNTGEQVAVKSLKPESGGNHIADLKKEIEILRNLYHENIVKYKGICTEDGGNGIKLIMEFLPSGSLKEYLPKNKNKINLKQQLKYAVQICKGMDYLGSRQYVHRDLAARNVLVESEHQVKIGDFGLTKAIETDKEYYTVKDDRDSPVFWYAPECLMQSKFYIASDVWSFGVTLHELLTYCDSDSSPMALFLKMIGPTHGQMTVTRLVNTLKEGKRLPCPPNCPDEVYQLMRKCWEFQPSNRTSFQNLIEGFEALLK
Sequence of Tyk2 (P29597 whole entry): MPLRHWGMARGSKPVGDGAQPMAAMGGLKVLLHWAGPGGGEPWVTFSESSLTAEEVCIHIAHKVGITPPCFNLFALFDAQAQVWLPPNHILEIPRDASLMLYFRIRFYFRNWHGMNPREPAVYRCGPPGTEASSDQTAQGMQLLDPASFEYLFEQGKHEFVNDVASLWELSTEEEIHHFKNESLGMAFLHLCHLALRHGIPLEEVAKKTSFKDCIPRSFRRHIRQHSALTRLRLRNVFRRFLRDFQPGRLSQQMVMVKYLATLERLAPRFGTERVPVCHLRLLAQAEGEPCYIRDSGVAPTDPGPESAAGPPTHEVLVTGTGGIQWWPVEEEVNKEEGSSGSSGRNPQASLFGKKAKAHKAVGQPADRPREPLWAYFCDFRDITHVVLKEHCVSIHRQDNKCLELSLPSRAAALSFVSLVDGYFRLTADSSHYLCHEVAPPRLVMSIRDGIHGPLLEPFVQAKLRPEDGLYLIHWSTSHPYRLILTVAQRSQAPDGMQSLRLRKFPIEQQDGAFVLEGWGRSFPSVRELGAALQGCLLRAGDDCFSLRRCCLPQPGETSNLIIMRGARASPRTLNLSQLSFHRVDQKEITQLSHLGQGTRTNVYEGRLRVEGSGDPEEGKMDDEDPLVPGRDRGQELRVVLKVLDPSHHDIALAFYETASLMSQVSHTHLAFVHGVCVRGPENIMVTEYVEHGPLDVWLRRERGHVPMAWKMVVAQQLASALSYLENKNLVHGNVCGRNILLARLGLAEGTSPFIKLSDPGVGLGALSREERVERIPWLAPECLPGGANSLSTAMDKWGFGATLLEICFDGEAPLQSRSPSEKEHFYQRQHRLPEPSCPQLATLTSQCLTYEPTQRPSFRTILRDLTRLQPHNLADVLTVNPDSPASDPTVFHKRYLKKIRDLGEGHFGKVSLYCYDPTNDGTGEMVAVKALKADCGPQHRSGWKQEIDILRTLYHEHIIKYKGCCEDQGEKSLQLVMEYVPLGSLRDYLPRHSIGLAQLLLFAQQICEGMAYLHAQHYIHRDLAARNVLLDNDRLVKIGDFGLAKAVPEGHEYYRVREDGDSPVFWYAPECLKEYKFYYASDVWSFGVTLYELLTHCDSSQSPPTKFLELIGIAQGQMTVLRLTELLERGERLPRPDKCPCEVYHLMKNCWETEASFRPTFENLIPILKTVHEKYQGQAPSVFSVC
Sequence of JAK2 (O60674 whole entry): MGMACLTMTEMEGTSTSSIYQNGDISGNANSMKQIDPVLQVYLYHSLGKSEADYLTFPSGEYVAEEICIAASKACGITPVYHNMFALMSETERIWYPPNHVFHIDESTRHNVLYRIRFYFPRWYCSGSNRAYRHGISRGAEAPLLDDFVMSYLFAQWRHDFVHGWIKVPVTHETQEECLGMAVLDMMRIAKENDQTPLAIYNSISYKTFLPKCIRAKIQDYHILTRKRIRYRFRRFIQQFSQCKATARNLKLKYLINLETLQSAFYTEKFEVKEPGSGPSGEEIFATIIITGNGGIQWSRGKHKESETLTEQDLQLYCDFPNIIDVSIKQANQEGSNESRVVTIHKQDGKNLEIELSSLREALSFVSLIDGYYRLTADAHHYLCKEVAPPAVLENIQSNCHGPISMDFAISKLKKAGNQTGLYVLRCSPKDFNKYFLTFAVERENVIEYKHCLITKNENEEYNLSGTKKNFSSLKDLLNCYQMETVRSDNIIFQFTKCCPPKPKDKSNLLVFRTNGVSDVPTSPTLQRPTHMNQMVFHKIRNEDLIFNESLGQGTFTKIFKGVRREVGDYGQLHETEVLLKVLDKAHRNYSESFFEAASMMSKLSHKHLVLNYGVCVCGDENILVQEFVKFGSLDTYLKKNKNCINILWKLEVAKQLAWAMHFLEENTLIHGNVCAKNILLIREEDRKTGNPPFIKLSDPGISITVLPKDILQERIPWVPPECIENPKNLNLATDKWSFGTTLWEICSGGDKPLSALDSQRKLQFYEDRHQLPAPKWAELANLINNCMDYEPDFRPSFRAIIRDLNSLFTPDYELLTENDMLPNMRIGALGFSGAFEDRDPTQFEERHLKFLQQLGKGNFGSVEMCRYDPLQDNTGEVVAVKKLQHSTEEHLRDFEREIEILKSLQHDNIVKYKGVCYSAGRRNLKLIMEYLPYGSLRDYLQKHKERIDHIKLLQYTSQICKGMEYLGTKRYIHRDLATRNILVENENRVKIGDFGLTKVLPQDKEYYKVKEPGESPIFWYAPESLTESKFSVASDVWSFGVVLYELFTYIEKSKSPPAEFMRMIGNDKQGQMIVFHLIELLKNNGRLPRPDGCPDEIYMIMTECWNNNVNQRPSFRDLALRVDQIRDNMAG
Sequence of JAK3 (P52333 whole entry): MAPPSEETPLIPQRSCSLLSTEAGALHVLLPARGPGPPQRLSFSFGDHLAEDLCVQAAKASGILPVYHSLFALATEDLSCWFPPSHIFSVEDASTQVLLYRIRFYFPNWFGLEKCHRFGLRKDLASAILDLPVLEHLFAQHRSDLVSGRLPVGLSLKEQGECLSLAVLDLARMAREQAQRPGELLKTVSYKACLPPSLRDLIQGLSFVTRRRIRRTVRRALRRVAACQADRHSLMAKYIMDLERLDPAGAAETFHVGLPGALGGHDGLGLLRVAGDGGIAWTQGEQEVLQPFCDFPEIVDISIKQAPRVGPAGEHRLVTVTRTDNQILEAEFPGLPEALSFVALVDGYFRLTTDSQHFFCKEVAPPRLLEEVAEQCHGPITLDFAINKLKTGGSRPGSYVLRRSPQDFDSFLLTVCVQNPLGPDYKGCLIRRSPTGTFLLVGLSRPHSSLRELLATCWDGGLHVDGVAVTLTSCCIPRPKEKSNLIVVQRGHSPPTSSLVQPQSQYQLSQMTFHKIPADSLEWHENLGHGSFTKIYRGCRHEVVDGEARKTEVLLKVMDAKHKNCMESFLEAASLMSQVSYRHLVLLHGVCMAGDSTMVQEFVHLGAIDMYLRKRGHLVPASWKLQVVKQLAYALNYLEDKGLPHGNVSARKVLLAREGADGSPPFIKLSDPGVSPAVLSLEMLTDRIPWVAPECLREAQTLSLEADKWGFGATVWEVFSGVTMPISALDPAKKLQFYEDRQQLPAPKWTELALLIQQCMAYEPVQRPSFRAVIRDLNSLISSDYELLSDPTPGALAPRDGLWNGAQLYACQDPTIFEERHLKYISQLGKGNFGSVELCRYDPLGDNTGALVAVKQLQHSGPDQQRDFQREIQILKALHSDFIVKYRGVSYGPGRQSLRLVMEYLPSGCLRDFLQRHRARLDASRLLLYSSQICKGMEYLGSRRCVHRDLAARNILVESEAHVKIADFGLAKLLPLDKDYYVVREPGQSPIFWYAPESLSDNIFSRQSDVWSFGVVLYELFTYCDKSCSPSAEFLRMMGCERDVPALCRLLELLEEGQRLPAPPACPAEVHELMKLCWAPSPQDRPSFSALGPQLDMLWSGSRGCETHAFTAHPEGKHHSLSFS

SMILES | JAK 1 (pKi) [1] | Tyk 2 (pKi) [2] | JAK 2 (pKi) [3] | JAK 3 (pKi) [4] | JAK3 (pKi)-JAK1 (pKi) [4, 6] | Tall-1 (pIC50) [5, 7] | JAK3 (pKi)-JAK1 (pKi) [4, 8] | Tall-1 (pIC50) [5, 9]
C=CC(=O)N1CC(CCn2c(=O)ccc3cnc(Nc4ccc(N5CCN(C(C)=O)CC5)nc4)nc32)C1 [Example 183] | E (E represents a pKi value of 7 or below (Ki of 100 nM or above)) | E (E represents a pKi value of 7 or below (Ki of 100 nM or above)) | E (E represents a pKi value of 7 or below (Ki of 100 nM or above)) | A (A represents a pKi value≥10 (Ki≤0.1 nM)) | A (A represents a value of 3 or above) | C (C represents a pIC50 value between 6 and 6.7 (IC50 between 1 μM and 200 nM)) |  | 
C=CC(=O)N1CCN(CCn2c(=O)ccc3cnc(Nc4ccc(N5CCN(S(=O)(=O)CCOC)CC5)cc4)nc32)CC1 [Example 147] | E (E represents a pKi value of 7 or below (Ki of 100 nM or above)) | E (E represents a pKi value of 7 or below (Ki of 100 nM or above)) | E (E represents a pKi value of 7 or below (Ki of 100 nM or above)) | B (B represents pKi value between 9 and 10 (Ki between 1 nM and 0.1 nM)) | A (A represents a value of 3 or above) | C (C represents a pIC50 value between 6 and 6.7 (IC50 between 1 μM and 200 nM)) |  | 
C=CC(=O)N1CCN(CCn2c(=O)ccc3cnc(Nc4ccc(N5CCN(C(=O)N(C)C)CC5)cc4)nc32)CC1 [Example 146] | E (E represents a pKi value of 7 or below (Ki of 100 nM or above)) | E (E represents a pKi value of 7 or below (Ki of 100 nM or above)) | E (E represents a pKi value of 7 or below (Ki of 100 nM or above)) | B (B represents pKi value between 9 and 10 (Ki between 1 nM and 0.1 nM)) | A (A represents a value of 3 or above) | B (B represents a pC50 value between 6.7 (included) and 7.5 (IC50 between 200 nM and 32 nM)) |  | 
C=CC(=O)N1CCN(CCn2c(=O)ccc3cnc(Nc4cnn(CCN5CCOCC5)c4)nc32)[C@@H](CC)C1 [Example 244] | E (E represents a pKi value of 7 or below (Ki of 100 nM or above)) | E (E represents a pKi value of 7 or below (Ki of 100 nM or above)) | E (E represents a pKi value of 7 or below (Ki of 100 nM or above)) | B (B represents pKi value between 9 and 10 (Ki between 1 nM and 0.1 nM)) |  |  | A (A represents a value of 3 or above) | B (B represents a pC50 value between 6.7 (included) and 7.5 (IC50 between 200 nM and 32 nM))
C=CC(=O)N1CC(CCn2c(=O)ccc3cnc(Nc4ccc(N5CCN(C)CC5)c(Cl)c4)nc32)C1 [Example 17] | E (E represents a pKi value of 7 or below (Ki of 100 nM or above)) | E (E represents a pKi value of 7 or below (Ki of 100 nM or above)) | E (E represents a pKi value of 7 or below (Ki of 100 nM or above)) | B (B represents pKi value between 9 and 10 (Ki between 1 nM and 0.1 nM)) | A (A represents a value of 3 or above) | B (B represents a pC50 value between 6.7 (included) and 7.5 (IC50 between 200 nM and 32 nM)) |  | 
C=CC(=O)N1CCN(CCn2c(=O)ccc3cnc(Nc4ccc(N5C[C@@H](C)N(C)[C@@H](C)C5)cc4)nc32)CC1 [Example 248] | E (E represents a pKi value of 7 or below (Ki of 100 nM or above)) | E (E represents a pKi value of 7 or below (Ki of 100 nM or above)) | E (E represents a pKi value of 7 or below (Ki of 100 nM or above)) | B (B represents pKi value between 9 and 10 (Ki between 1 nM and 0.1 nM)) |  |  | A (A represents a value of 3 or above) | A (A represents a pIC50 value≥7.5 (IC50≤32 nM))
C=CC(=O)N1CCN(CCn2c(=O)ccc3cnc(Nc4ccc(N5CCN(C(=S)N(C)C)CC5)cc4)nc32)CC1 [Example 214] | E (E represents a pKi value of 7 or below (Ki of 100 nM or above)) | E (E represents a pKi value of 7 or below (Ki of 100 nM or above)) | E (E represents a pKi value of 7 or below (Ki of 100 nM or above)) | B (B represents pKi value between 9 and 10 (Ki between 1 nM and 0.1 nM)) | A (A represents a value of 3 or above) | B (B represents a pC50 value between 6.7 (included) and 7.5 (IC50 between 200 nM and 32 nM)) |  | 

From patent publication US11697648B2, “Fused pyrimidine pyridinone compounds as JAK inhibitors” (THERAVANCE BIOPHARMA R&D IP, LLC, priority 2019, dated 2023)
